# Laboratory results reported in paper PMC6274259, “New 3-Cyano-2-Substituted Pyridines Induce Apoptosis in MCF 7 Breast Cancer Cells” (Molecules, 2016).
# Columns and labels:
# [1] = test system: HCT-116 human colon carcinoma cell line; assay: WST-1 cell viability assay, HCT-116; assay type: cell-based; conditions: Homo sapiens, HCT-116; WST-1, 24 h treatment, mean ± S.D of three independent experiments
# Source text: (§1) The synthesized compounds were screened for their cytotoxicity on five cancer cell lines, namely SK-OV-3, MCF-7, MDA-MB-231, HCT-116 and RKO, using a WST colorimetric assay. The assay principle is based upon the reduction of the tetrazolium salt WST-1 to formazan by cellular mitochondrial dehydrogenases present in viable cells. […] Among the latter compounds the benzohydrazide derivative 9a emerged with the lowest IC50 in this study against MCF-7 cells compared to 5-FU. […] Based on the fact that 9a had less cytotoxic effects on normal breast epithelial cells it was subjected to further studies.
# (§2) The following cell lines were used for the screening stage, obtained from the American Type Culture Collection (ATCC, Manassas, VA, USA); SK-OV-3 (HTB-77), MCF-12A (ATCC CRL-10782), MDA-MB-231 (ATCC HTB-26), HCT-116 (CCL-247), RKO (CRL-2577) and sub-culturing of the above cell lines was conducted in 75 cm^2 flasks. The old culture media was removed and discarded after assessing the confluency of the cells and the cells were rinsed with 2–3 mL diluted trypsin (1×) (trypsin/EDTA solution consists of 0.025% trypsin and 0.01% EDTA in PBS), for about 5 minutes for complete detachment. The cells were observed under the inverted microscope until the cell layer is completely dispersed. 75 cm^2 flasks were prepared and 16 mL of DMEM media for SK-OV-3, MCF-7, MDA-MB-231, (DMEM 4500 mg glucose) and RPMI media for HCT-116 were added to each flask. The cells were aspirated gently and added to the flasks. DMEM 4500 mg/L high glucose with 10% FBS, 5% streptomycin and penicillin, RPMI 1640 (prepared by adding 5% heat-inactivated FCS and 2 mm glutamine) were used. DMEM was also used for MCF-12A cells with the addition of human epidermal growth factor 20 ng/mL, insulin 0.01 mg/mL and hydrocortisone 500 ng/mL.
# (§3) The synthesized compounds were screened for their anti-proliferative activity using 5-FU (F6627-1G, Sigma-Aldrich, St. Louis, MO, USA) as reference compound. A concentration of 0.4% DMSO was used in all experiment after ensuring 100% viability of the cell lines with this concentration. A 25 mM stock concentration of all compounds was prepared for further studies and analysis.
# (§4) Cells were trypsinized and placed in a 15 mL Falcon tube, the cells were centrifuged for 3 min at 1000 rpm. Trypsin is decanted using a sterile pipette and then the pellet is loosened by flicking the tube few times then 5–10 mL warm DMEM or RPMI were added to the Falcon tube and the pellet is resuspended. Cell count was done next by taking 10 μL of the suspension into the cell counting slide and read under 10× cells/mL. A cell stock of 50,000 cells/mL was prepared for the 96 wells. Cells (100 μL) were added to each well using a sterile pipette each time to ensure consistency. The experiment was planned ahead of time using excel sheet, 3–6 wells were reserved as blank media while 3–6 wells for vehicle (DMSO). The plate was incubated for 24 h for compound treatment step. DMEM media was used to prepare different dilutions of the compounds. The old DMEM media was removed from the wells using sterile pipette in the hood and the media was replaced with 100 μL media with each compound. The plate was incubated for 24 h. After 24 h incubation, WST-1 reagent (Sigma) was added to each well and then the plate was incubated for 1 h before measuring the absorbance using VICTOR™ Multilabel Plate Reader (Perkin Elmer, Beaconsfield, UK). The absorbance of the colored solution can be quantified by measuring at a certain wavelength (usually between 500–600 nm), in this experiment the first reading was conducted at 540 nm and the second reading at 690 nm for the reference wavelength. The percentage of cell viability was determined as the ratio of the absorbance of the sample vs the control. Three independent experiments were performed. […] 5-Florouracil (Sigma-Aldrich, F6627-1G) was used as reference standard.
# [2] = test system: MDA-MB-231 human breast adenocarcinoma cell line; assay: WST-1 cell viability assay, MDA-MB-231; assay type: cell-based; conditions: Homo sapiens, MDA-MB-231; WST-1, 24 h treatment, mean ± S.D of three independent experiments
# Source text: as §1, §2, §3, §4
# [3] = test system: RKO human colon carcinoma cell line; assay: WST-1 cell viability assay, RKO; assay type: cell-based; conditions: Homo sapiens, Colon carcinoma cell; WST-1, 24 h treatment, mean ± S.D of three independent experiments
# Source text: as §1, §2, §3, §4
# [4] = test system: SK-OV-3 human ovarian carcinoma cell line; assay: WST-1 cell viability assay, SK-OV-3; assay type: cell-based; conditions: Homo sapiens, SK-OV-3; WST-1, 24 h treatment, mean ± S.D of three independent experiments
# Source text: as §1, §2, §3, §4
# MCF-7 cells [5] = assay: Morphological examination of MCF-7 cells; assay type: cell-based, human; conditions: 24 h
# Protocol: The morphological changes in MCF-7 cells were followed up after treatment with different concentrations of compound 9a (0.05, 0.1, 0.5, 2, 5 and 10 μM) for 24 h. […] Untreated cells were used as a negative control.
# Morphological examination was performed as described previously; MCF-7 cells were plated on 96 well plates using 5 × 10^4 cells/well and allowed to reach 75%–85% confluence. The compounds were added to the medium, untreated cells were used as negative control, in addition to blank cells (medium) and vehicle which consist of (DMSO 0.4% + cells). After treatment, all the cells were incubated for 24 h in an atmosphere containing 5% CO2. After […] of treatment, the morphological changes of the cells were examined and photographs were taken using an inverted microscope at 400× magnification.
# MCF-7 cells [6] = assay: Enzyme linked immunosorbent apoptosis assay (Cell Death Detection ELISA PLUS); assay type: cell-based, human
# Protocol: Compound 9a was further investigated for induction of apoptosis in MCF-7 cells using Cell Death Detection ELISA^PLUS which is used for the quantitative in vitro determination of cytoplasmic histone-associated DNA fragments (mono- and oligonucleosomes) in apoptosing cells.
# Cells were seeded at a density of 2 × 10^4/ well in a 96-well plate and incubated for 24 h. […] An ELISA assay was performed using Cell Death Detection ELISA PLUS kit (Roche-Applied Science, Indianapolis, IN, USA) for the quantitative in vitro determination of cytoplasmic histone-associated DNA fragments (mono- and oligonucleosomes) in apoptosing cells. Briefly, cells were lysed with 200-μL lysis buffer for 30 min at room temperature. The lysate was centrifuged at 200 g for 10 min. 150 μL of supernatant was collected, of which 20 μL was incubated with anti-histone biotin and anti-DNA peroxidase at room temperature for 2 h. After washing with incubation buffer three times, 100 μL of substrate solution (2,2′-azino-di(3-ethylbenzthiazolinsulphonic acid) was added to each well and incubated for 15–20 min at room temperature. The absorbance was measured using an ELISA reader (Spectra Max Plus) at 405 nm. The control group was cells without compounds treatment. Each assay was done in triplicate and the standard deviation was determined.
compound,measurement,setting,value
"COc1ccc(-c2cc(-c3ccc(OC)c(OC)c3)c(C#N)c(OCC(=O)NNC(=O)c3ccccc3)n2)cc1OC [Compound 9a, N'-[2-(3-cyano-4,6-bis(3,4-dimethoxyphenyl)pyridin-2-yloxy)acetyl]benzohydrazide]",IC50,[1],7.12 ± 0.37 µM
same,IC50,[2],22.3 ± 0.88 µM
same,IC50,[3],8.22 ± 0.99 µM
same,IC50,[4],9.06 ± 0.24 µM
same,morphological changes,"MCF-7 cells [5]; 0.05, 0.1 and 0.5 μM",no morphological changes were observed
same,morphological changes,"MCF-7 cells [5]; 2, 5 and 10 μM",apoptotic features were observed
same,"induction of apoptosis, concentration dependence",MCF-7 cells [6]; 0.1 to 4 μM,increased in a dose dependent fashion
same,"induction of apoptosis, exposure time with optimum value",MCF-7 cells [6]; exposure 3 h to 48 h,24 h
